ChEMBL document CHEMBL2203267, “Synthesis, antioxidant and antimicrobial activity of novel vanillin derived piperidin-4-one oxime esters: preponderant role of the phenyl ester substituents on the piperidin-4-one oxime core” (Bioorg Med Chem Lett, 2012)
pIC50: −log10 of the molar value.

Columns and labels:
Pseudomonas aeruginosa [1] = experiment: Antibacterial activity against Pseudomonas aeruginosa ATCC 27853 at 1000 ug/mL after 24 hrs by well plate method; assay type: functional; details: ATCC 27853, 24 h, read-out: DIZ
Staphylococcus aureus [2] = experiment: Antibacterial activity against Staphylococcus aureus ATCC 25923 at 500 ug/mL after 24 hrs by well plate method; assay type: functional; details: ATCC 25923, 24 h, read-out: DIZ
Staphylococcus aureus [3] = experiment: Antibacterial activity against Staphylococcus aureus ATCC 25923 at 1000 ug/mL after 24 hrs by well plate method; assay type: functional; details: ATCC 25923, 24 h, read-out: DIZ
Escherichia coli [4] = experiment: Antibacterial activity against Escherichia coli ATCC 25922 at 500 ug/mL after 24 hrs by well plate method; assay type: functional; details: ATCC 25922, 24 h, read-out: DIZ
Escherichia coli [5] = experiment: Antibacterial activity against Escherichia coli ATCC 25922 at 1000 ug/mL after 24 hrs by well plate method; assay type: functional; details: ATCC 25922, 24 h, read-out: DIZ
[6] = Antioxidant activity assessed as ABTS+ radical scavenging activity after 30 mins by UV-vis spectrophotometric analysis; assay type: functional
Liver microsomes = experiment: Antioxidant activity in Wistar rat liver microsomes assessed as inhibition of lipid peroxidation after 60 mins by UV-vis spectrophotometric analysis; assay type: functional, Microsome
[7] = system: Radical scavenging activity; experiment: Antioxidant activity assessed as DPPH radical scavenging activity after 20 mins by UV-vis spectrophotometric analysis; assay type: functional
Candida albicans [8] = experiment: Antifungal activity against Candida albicans MTCC 3017 at 500 ug/mL after 72 hrs by well plate method; assay type: functional; details: MTCC 3017, 72 h, read-out: DIZ
Candida albicans [9] = experiment: Antifungal activity against Candida albicans MTCC 3017 at 1000 ug/mL after 72 hrs by well plate method; assay type: functional; details: MTCC 3017, 72 h, read-out: DIZ
[10] = Antifungal activity against Chrysosporium keratinophilum MTCC 2827 at 500 ug/mL after 72 hrs by well plate method; assay type: functional
[11] = Antifungal activity against Chrysosporium keratinophilum MTCC 2827 at 1000 ug/mL after 72 hrs by well plate method; assay type: functional
Aspergillus flavus [12] = experiment: Antifungal activity against Aspergillus flavus MTCC 3306 at 500 ug/mL after 72 hrs by well plate method; assay type: functional; details: MTCC 3306, 72 h, read-out: DIZ
Aspergillus flavus [13] = experiment: Antifungal activity against Aspergillus flavus MTCC 3306 at 1000 ug/mL after 72 hrs by well plate method; assay type: functional; details: MTCC 3306, 72 h, read-out: DIZ
Pseudomonas aeruginosa [14] = experiment: Antibacterial activity against Pseudomonas aeruginosa ATCC 27853 at 500 ug/mL after 24 hrs by well plate method; assay type: functional; details: ATCC 27853, 24 h, read-out: DIZ

SMILES	pIC50 [6]	pIC50 (Liver microsomes)	pIC50 [7]	zone of inhibition at 1000 µg/mL (Pseudomonas aeruginosa [1])	zone of inhibition at 500 µg/mL (Staphylococcus aureus [2])	zone of inhibition at 1000 µg/mL (Staphylococcus aureus [3])	zone of inhibition at 500 µg/mL (Escherichia coli [4])	zone of inhibition at 1000 µg/mL (Escherichia coli [5])	zone of inhibition at 500 µg/mL (Candida albicans [8])	zone of inhibition at 1000 µg/mL (Candida albicans [9])	inhibition zone (IZ) [10]	inhibition zone (IZ) [11]	zone of inhibition at 500 µg/mL (Aspergillus flavus [12])	zone of inhibition at 1000 µg/mL (Aspergillus flavus [13])	zone of inhibition at 500 µg/mL (Pseudomonas aeruginosa [14])
COc1cc(C2CC(=NOC(=O)c3cc(O)cc(O)c3)CC(c3ccc(O)c(OC)c3)N2C)ccc1O (stereo not given)	4.91	4.76	4.97	5 mm	5 mm	5 mm	5 mm	4 mm	3 mm	3 mm	2 mm	1 mm	1 mm	2 mm	4 mm
COc1cc(C2CC(=NOC(=O)c3cc(OC)c(OC)c(OC)c3)CC(c3ccc(O)c(OC)c3)N2C)ccc1O (stereo not given)	4.28	4.21	4.40	5 mm	4 mm	6 mm	4 mm	5 mm	3 mm	3 mm	3 mm	6 mm	4 mm	3 mm	3 mm
COc1cc(C2CC(=NOC(=O)c3ccc(Cl)cc3)CC(c3ccc(O)c(OC)c3)N2C)ccc1O (stereo not given)	3.95	3.92	3.96	15 mm	9 mm	13 mm	12 mm	17 mm	16 mm	19 mm	12 mm	10 mm	12 mm	15 mm	12 mm
COc1cc(C2CC(=NOC(=O)c3ccccc3O)CC(c3ccc(O)c(OC)c3)N2C)ccc1O (stereo not given)	4.80	4.62	4.83	4 mm	5 mm	5 mm	4 mm	6 mm	2 mm	6 mm	4 mm	6 mm	3 mm	4 mm	3 mm
COc1cc(C2CC(=NOC(=O)c3cc(O)c(O)c(O)c3)CC(c3ccc(O)c(OC)c3)N2C)ccc1O (stereo not given)	4.93	4.79	5.00	4 mm	4 mm	6 mm	5 mm	7 mm	6 mm	8 mm	3 mm	4 mm	2 mm	4 mm	3 mm

More lines, main results first:

pIC50 [6]	pIC50 (Liver microsomes)	pIC50 [7]	SMILES	zone of inhibition at 1000 µg/mL (Pseudomonas aeruginosa [1])	zone of inhibition at 500 µg/mL (Staphylococcus aureus [2])	zone of inhibition at 1000 µg/mL (Staphylococcus aureus [3])	zone of inhibition at 500 µg/mL (Escherichia coli [4])	zone of inhibition at 1000 µg/mL (Escherichia coli [5])	zone of inhibition at 500 µg/mL (Candida albicans [8])	zone of inhibition at 1000 µg/mL (Candida albicans [9])	inhibition zone (IZ) [10]	inhibition zone (IZ) [11]	zone of inhibition at 500 µg/mL (Aspergillus flavus [12])	zone of inhibition at 1000 µg/mL (Aspergillus flavus [13])	zone of inhibition at 500 µg/mL (Pseudomonas aeruginosa [14])
3.97	3.95	3.99	COc1cc(C2CC(=NOC(=O)c3ccc(Br)cc3)CC(c3ccc(O)c(OC)c3)N2C)ccc1O (stereo not given)	9 mm	7 mm	9 mm	7 mm	11 mm	8 mm	9 mm	5 mm	7 mm	5 mm	6 mm	7 mm
3.85	3.85	3.88	COc1cc(C2CC(=NOC(=O)c3ccc(F)cc3)CC(c3ccc(O)c(OC)c3)N2C)ccc1O (stereo not given)	16 mm	13 mm	15 mm	13 mm	18 mm	18 mm	20 mm	14 mm	12 mm	13 mm	17 mm	13 mm
4.82	4.65	4.85	COc1cc(C2CC(=NOC(=O)c3ccc(O)cc3)CC(c3ccc(O)c(OC)c3)N2C)ccc1O (stereo not given)	3 mm	4 mm	6 mm	4 mm	5 mm	2 mm	2 mm	2 mm	3 mm	12 mm	1 mm	2 mm
